Where two headings read alike, the source gives them in different places.

The results in this text go back to patent US8853452B2, “Compounds, their syntheses, compositions, and methods to treat cancer” (The Administrators of the Tulane Educational Fund, priority 2009, dated 2014).

Series [1] concerns MCF-7 cells. The series is described as follows: Clonogenic survival assay. Type of series: cell-based, Human. The conditions noted are these: Table 2, 0.1 μM-20 μM for 10 days, read-out: MCF-7 (IC50), clonogenic survival. How it is done:
(§1) Human cancer cell lines derived from breast, MCF-7, endocrine-resistant MDA-MB-231, and chemoresistant MCF-7TN-R were cultured in 75 cm^2 culture flasks in DMEM (Invitrogen, Co.) supplemented with 10% FBS (Life Technologies, Inc., Gaithersburg, Md.), basic minimum MEM essential (50×, Invitrogen Co.) and MEM non-essential (100×, Invitrogen, Co.) amino acids, sodium pyruvate (100× Invitrogen Co.), antimicotic-antibiotic (10,000 U/mL penicillin G sodium; 10,000 μg/mL streptomycin sulphate; 25 μg/mL amphotericin B as Fungizone®), and human recombinant insulin (4 mg/mL Invitrogen Co). Culture flasks were maintained in a tissue culture incubator in a humidified atmosphere of 5% CO2 and 95% air at 37° C.
(§2) MCF-7, MDA-MB-231, or MCF-7TN-R cells were plated in 6-well plates at 1000 cells per well. Twenty-four hours later, cells were treated with varying concentrations of the compound and then monitored microscopically for colony growth. Ten days later the cells were fixed with 3% glutaraldehyde. Following fixation for 15 min, the plates were washed and stained with a 0.4% solution of crystal violet in 20% methanol for 30 min, washed with PBS, and air-dried. Colonies of 30 cells were counted as positive. Results are normalized to percent clonogenic survival from untreated control cells. Statistical analysis of IC50 values were calculated from concentration-response curves using GraphPad Prism 5.0 (Graphpad Software, San Diego, Calif.), using with the equation: Y=Bottom+(Top−bottom)/1+10 Log EC50−X.
(§3) Compounds II-1, II-2, II-3, II-4, II-5, and II-6 were compared for their inhibitory effect on breast cancer clonogenic survival. Cells were treated with varying concentration of compound, ranging from 0.1 μM-20 μM for 10 days. […] At endpoint, cell colonies were fixed, stained and recorded as percent vehicle control.

Series [2] concerns MCF-7TN-R cells. In words: Clonogenic survival assay. Type of series: cell-based, Human. The conditions noted are these: Homo sapiens, 240 h, Table 2; 0.1 μM-20 μM for 10 days; read-out: MCF-7-TNR (IC50), clonogenic survival. How it is done:
as §1, §2, §3

The subject of series [3] is MDA-MB-231 cells. The series is described as follows: Clonogenic survival assay. As to conditions: Homo sapiens, MDA-MB-231, 240 h, Table 2; 0.1 μM-20 μM for 10 days; read-out: MDA-MB-231 (IC50), clonogenic survival. The format is cell-based, Human. How it is done: as §1, §2, §3
In series [4] the test system is MCF-7TN-R cells. The series is described as follows: Proliferation assay. Type of series: cell-based. The conditions noted are these: Homo sapiens; Table 3; read-out: IC50 (μM), anti-proliferative in MCF-7TN-R cells. How it is done: The ability of compound II-3 to block proliferation as an anti-survival mechanism in addition to apoptosis was determined by measuring anti-proliferative effects.
Nineteen compounds were synthesized using fifteen benzaldehydes as starting material. […] These were tested as potential anti-proliferative agents in MCF-7TN-R cells, and the structure-activity relationships were studied using several parameters. […] In compounds containing a methyl group, a significant increase of the PAC (C) in o-substituted compound was detected, which may account for the increased anti-proliferation activity. Ortho-substituted analogs with electron withdrawing groups by induction can have beneficial effects, and PAC (C) can be a useful predictor of the structural property of the molecule.

Series [5] in a line: Log K (structure-activity parameter). Type of series: physicochemical.

For `CCCCCCCCCCCCCCNC(=O)[C@H](CO)NC(=O)C1CCCCC1` [II-1, (S)—N-(3-hydroxy-1-oxo-1-(tetradecylamino)propan-2-yl)cyclohexanecarboxamide], the IC50 was determined as 7.2 µM in series [1] (Homo sapiens, MCF7, 240 h); 23.5 µM in series [2]; 11.5 µM in series [3].

For the compound `CCCCCCCCCCCCCCNC(=O)[C@H](CO)NCc1ccccc1` [II-2, (S)-2-(benzylamino)-3-hydroxy-N-tetradecylpropanamide], the IC50 in series [1] (Homo sapiens, MCF7, 240 h) came to 4.97 µM; in series [1], 5 µM; in series [2] it was 15.2 µM; in series [3] it was 10.5 µM.

`CCCCCCCCCCCCCCNC(=O)[C@H](CO)NC(=O)C(C)(C)C` [II-4, (S)-3-hydroxy-2-pivalamido-N-tetradecylpropanamide]: the IC50 in series [1] (Homo sapiens, MCF7, 240 h) worked out at 6.7 µM; in series [2] it was 11.1 µM; in series [3] it was 6.1 µM.

As for `CCCCCCCCCCCCCCNC(=O)[C@H](CO)NC(=O)c1cc(OC)cc(OC)c1` [II-5, (S)—N-(3-hydroxy-1-oxo-1-(tetradecylamino)propan-2-yl)-3,5-dimethoxybenzamide], the IC50 worked out at 11.2 µM in series [1] (Homo sapiens, MCF7, 240 h); 15 µM in series [2]; 6.6 µM in series [3].

Regarding `CCCCCCCCCCCCCCNC(=O)[C@H](CO)NC(C)=O` [II-6, (S)-2-acetamido-3-hydroxy-N-tetradecylpropanamide], the IC50 in series [1] (Homo sapiens, MCF7, 240 h) stood at 44.7 µM; in series [2] it was 52.7 µM; in series [3] it was 75.1 µM.

`CCCCCCCCCCCCCCNC(=O)[C@H](CO)N=Cc1ccc([N+](=O)[O-])cc1` [II-7, (S)-2-(4-nitrobenzylideneamino)-3-hydroxy-N-tetradecylpropanamide]: the IC50 in series [4] was 216 µM. Besides, in series [5], the “Log K” value was found to be 0.86.

In the case of `CCCCCCCCCCCCCCNC(=O)[C@H](CO)N=Cc1cccc([N+](=O)[O-])c1` [II-8, (S)-2-(3-nitrobenzylideneamino)-3-hydroxy-N-tetradecylpropanamide], the IC50 in series [4] was 104 µM. Besides, the “Log K” value in series [5] worked out at 0.86.

On to `CCCCCCCCCCCCCCNC(=O)[C@H](CO)N=Cc1ccccc1[N+](=O)[O-]` [II-9, (S)-2-(2-nitrobenzylideneamino)-3-hydroxy-N-tetradecylpropanamide], for which the IC50 in series [4] was found to be 21.7 µM. The “Log K” value in series [5] turned out to be 0.88.

Regarding `CCCCCCCCCCCCCCNC(=O)[C@H](CO)N=Cc1ccc(C)cc1` [II-10, (S)-2-(4-methylbenzylideneamino)-3-hydroxy-N-tetradecylpropanamide], in series [4], the IC50 is 102 µM. Also, in series [5], the “Log K” value was 1.09.

Turning to `CCCCCCCCCCCCCCNC(=O)[C@H](CO)N=Cc1cccc(C)c1` [II-11, (S)-2-(3-methylbenzylideneamino)-3-hydroxy-N-tetradecylpropanamide], in series [4], the IC50 amounted to 82.9 µM. In addition, in series [5], the “Log K” value is listed as 1.09.

As to `CCCCCCCCCCCCCCNC(=O)[C@H](CO)N=Cc1ccccc1C` [II-12, (S)-2-(2-methylbenzylideneamino)-3-hydroxy-N-tetradecylpropanamide], the IC50 in series [4] worked out at 87.7 µM. Also, the “Log K” value in series [5] is reported as 1.09.

As to `CCCCCCCCCCCCCCNC(=O)[C@H](CO)N=Cc1ccc(Cl)cc1` [II-13, (S)-2-(4-chlorobenzylideneamino)-3-hydroxy-N-tetradecylpropanamide], in series [4], the IC50 turned out to be 27.5 µM. Moreover, the “Log K” value in series [5] came to 1.09.

For the compound `CCCCCCCCCCCCCCNC(=O)[C@H](CO)N=Cc1cccc(Cl)c1` [II-14, (S)-2-(3-chlorobenzylideneamino)-3-hydroxy-N-tetradecylpropanamide], the IC50 in series [4] stood at 24.1 µM. The “Log K” value in series [5] worked out at 1.08.

As for `CCCCCCCCCCCCCCNC(=O)[C@H](CO)N=Cc1ccccc1Cl` [II-15, (S)-2-(2-chlorobenzylideneamino)-3-hydroxy-N-tetradecylpropanamide], the IC50 in series [4] came to 10.3 µM. Further, the “Log K” value in series [5] is recorded as 1.12.

For the compound `CCCCCCCCCCCCCCNC(=O)[C@H](CO)N=Cc1ccc(OC)cc1` [II-16, (S)-2-(4-methoxybenzylideneamino)-3-hydroxy-N-tetradecylpropanamide], the IC50 in series [4] worked out at 28.1 µM. In addition, the “Log K” value in series [5] is 0.91.

As to `CCCCCCCCCCCCCCNC(=O)[C@H](CO)N=Cc1cccc(OC)c1` [II-17, (S)-2-(3-methoxybenzylideneamino)-3-hydroxy-N-tetradecylpropanamide], the IC50 in series [4] came out at 31.2 µM. In series [5], the “Log K” value is given as 0.92.

For `CCCCCCCCCCCCCCNC(=O)[C@H](CO)N=Cc1ccccc1OC` [II-18, (S)-2-(2-methoxybenzylideneamino)-3-hydroxy-N-tetradecylpropanamide], the IC50 in series [4] was determined as 12.5 µM. Besides, the “Log K” value in series [5] worked out at 0.89.

As for `CCCCCCCCCCCCCCNC(=O)[C@H](CO)N=Cc1ccc(O)cc1` [II-19, (S)-2-(4-hydroxybenzylideneamino)-3-hydroxy-N-tetradecylpropanamide], in series [4], the IC50 was 19.3 µM. Also, in series [5], the “Log K” value is recorded as 0.73.

As to `CCCCCCCCCCCCCCNC(=O)[C@H](CO)N=Cc1cccc(O)c1` [II-20, (S)-2-(3-hydroxybenzylideneamino)-3-hydroxy-N-tetradecylpropanamide], the IC50 in series [4] was 32.6 µM. For the same compound, in series [5], the “Log K” value is on record as 0.76.

Consider `CCCCCCCCCCCCCCNC(=O)[C@H](CO)N=Cc1ccccc1O` [II-21, (S)-2-(2-hydroxybenzylideneamino)-3-hydroxy-N-tetradecylpropanamide], for which the half-maximal inhibitory concentration (IC50) in series [4] is 19 µM. Moreover, the “Log K” value in series [5] came out at 0.89.
